Assay results from ChEMBL document CHEMBL1201862, “PubChem BioAssay data set” (2004).
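Values below derive from 48-hour exposures of cells grown in 96-well plates, with endpoints linearly interpolated between the two concentrations bracketing the appropriate inhibition level. GI50: concentration for 50% inhibition of growth.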 Active and inactive are the calls of the source. Cut-off read from the data, not from the text of the source: active = GI50 up to about 1.1 µM and inactive = higher.

Assays:
Experiment in all cases: NCI-60 cell line screen, 48 h
M14 = tested on: M14
SK-MEL-5 = tested on: SK-MEL-5
UO-31 = tested on: UO-31
UACC-62 = tested on: UACC-62
NCI-H226 = tested on: NCI-H226
IGROV-1 = tested on: IGROV-1
OVCAR-5 = tested on: OVCAR-5
SN12C = tested on: SN12C
SNB-19 = tested on: SNB-19
MOLT-4 = tested on: MOLT-4
786-0 = tested on: 786-0
KM12 = tested on: KM12
Malme-3M = tested on: Malme-3M
SW-620 = tested on: SW-620
LOX IMVI = tested on: LOX IMVI
RPMI-8226 = tested on: RPMI-8226

Row | Structure (SMILES) | GI50 (M14) | GI50 (SK-MEL-5) | GI50 (UO-31) | GI50 (UACC-62) | GI50 (NCI-H226) | GI50 (IGROV-1) | GI50 (OVCAR-5) | GI50 (SN12C) | GI50 (SNB-19) | GI50 (MOLT-4) | GI50 (786-0) | GI50 (KM12) | GI50 (Malme-3M) | GI50 (SW-620) | GI50 (LOX IMVI) | GI50 (RPMI-8226)
1 | CC1(C)CCCC2(C)C3C(O)CC2(C)C(O)C31 (stereo not given) | > 100 µM (inactive) | > 100 µM (inactive) | > 100 µM (inactive) | > 100 µM (inactive) | > 100 µM (inactive) | > 100 µM (inactive) | > 100 µM (inactive) | > 100 µM (inactive) | > 100 µM (inactive) | > 100 µM (inactive) | < 0.01 µM (active) | > 100 µM (inactive) | > 100 µM (inactive) | > 100 µM (inactive) | > 100 µM (inactive) | 
2 | O=C(Nc1cc(Cl)c(Cl)cc1Cl)C(=O)C(C(=O)c1ccc(Cl)c(Cl)c1)C1OC(=O)c2ccccc21 (stereo not given) | 13.5 µM (inactive) |  | 16.8 µM (inactive) | 16.1 µM (inactive) | 7.45 µM (inactive) |  | 11.1 µM (inactive) | 21.6 µM (inactive) | 15.5 µM (inactive) | 0.187 µM (active) | 13.4 µM (inactive) | 16.6 µM (inactive) | > 10 µM (inactive) | 15.6 µM (inactive) | 16.4 µM (inactive) | 15.6 µM (inactive)
3 | O=C1C(=Cc2c(O)cc(O)cc2O)C(=O)c2ccccc21 | > 43.3 µM (inactive) | > 100 µM (inactive) | > 100 µM (inactive) | > 40.5 µM (inactive) | 36 µM (inactive) | > 43.5 µM (inactive) | > 43 µM (inactive) | 19.5 µM (inactive) | > 42.6 µM (inactive) | 39.8 µM (inactive) | > 42.1 µM (inactive) | > 36.7 µM (inactive) | > 44.6 µM (inactive) | > 42.1 µM (inactive) | 15.4 µM (inactive) | 29 µM (inactive)
4 | COc1ccc(NC(=O)CC/C(CC(=O)C(C)(C)C)=N\NC(=O)C(N)=O)cc1 | > 100 µM (inactive) |  | > 100 µM (inactive) | > 100 µM (inactive) | > 100 µM (inactive) | > 100 µM (inactive) | > 100 µM (inactive) | > 100 µM (inactive) | > 100 µM (inactive) | > 100 µM (inactive) | > 100 µM (inactive) | > 100 µM (inactive) | > 100 µM (inactive) | > 100 µM (inactive) | > 100 µM (inactive) | 
5 | COC(=O)C1CCCC2(C1)OCCO2 (stereo not given) | > 100 µM (inactive) | > 100 µM (inactive) | > 100 µM (inactive) | > 100 µM (inactive) | > 100 µM (inactive) | > 100 µM (inactive) | > 100 µM (inactive) | > 100 µM (inactive) | > 100 µM (inactive) | > 100 µM (inactive) | > 100 µM (inactive) | > 100 µM (inactive) | > 100 µM (inactive) | > 100 µM (inactive) | > 100 µM (inactive) | > 100 µM (inactive)
6 | Cc1ccccc1/C=C/C(=O)c1ccccc1 | 16.1 µM (inactive) | > 10 µM (inactive) | 21.7 µM (inactive) | 19.9 µM (inactive) | 20.5 µM (inactive) | 25.2 µM (inactive) | 16.3 µM (inactive) | > 10 µM (inactive) | 16.5 µM (inactive) | 18.7 µM (inactive) | 16.3 µM (inactive) | 23.3 µM (inactive) | 18.1 µM (inactive) | > 10 µM (inactive) |  | 24.9 µM (inactive)
